Reference: US8518903B2, “Use of toll-like receptor-9 agonists” (University of Pittsburgh—of the Commonwealth System of …, priority 2007, dated 2013)

Experiments:
[1] = test system: murine model of endotoxemia; experiment: Enterocyte apoptosis (caspase 3) in murine model of endotoxemia; type: in vivo, mouse; details: 5 mg/kg LPS + 1 mg/kg CpG-DNA vs LPS, 3 hours
Description: (A) Control mice (injected with saline). (B) Mice injected with 5 mg/kg of LPS. (C) Mice injected with 5 mg/kg of LPS and 1 mg/kg of CpG. (D-G) Immunohistochemical staining of terminal ileum from newborn mice that were either breast fed (“control”) or induced to develop NEC (“NEC”). Sections were stained for caspase 3 as a marker of apoptosis and enterocyte loss; positive staining is indicated by a small arrowhead. (D) Control injected with saline. (E) NEC injected with saline. (F) Control injected with 1 mg/kg CpG-DNA daily for four days. (G) NEC injected with 1 mg/kg CpG-DNA daily for four days. (H) Bar graph summarizing results, showing percent apoptosis in terminal ileum as depicted in (D)-(G).
Induction of necrotizing enterocolitis. All mice were housed and cared for at Rangos Research Center, Children's Hospital of Pittsburgh. All experiments were approved by the Children's Hospital of Pittsburgh Animal Care Committee and the Institutional Review Board of the University of Pittsburgh (protocol 45-06). Swiss-Webster (CfW) and C57/B1-6 mice were obtained from Jackson Laboratories (Jackson Laboratory, Bar Harbor, Me.). Endotoxemia was induced in 2 week old C57/B16 or CpG1 (TLR9-mutant) mice by the intraperitoneal injection of LPS (Escherichia coli 0111:B4 purified by gel-filtration chromatography, >99% pure, 5 mg/kg, Sigma-Aldrich, St. Louis, Mo.). […]

IEC-6 cells = experiment: TLR4 and TLR9 expression and distribution in enterocytes (Western blot, immunofluorescence); type: cell-based
Description: FIG. 12. TLR4 and TLR9 expression are unchanged by CpG-DNA and LPS in enterocytes. Western blot showing levels of TLR4 and TLR9 (relative to actin) in enterocytes which were either untreated (Ctrl) or treated with LPS, LPS+CpG, or CpG.
FIG. 13A-E. CpG-DNA causes a redistribution of TLR4 into internal structures in IEC-6 cells. Immunofluorescence studies showing TLR4 distribution in IEC-6 cells which were either untreated (A) or treated with (B) LPS; (C) LPS+CpG; or (D) CpG. (E) is a schematic drawing showing redistribution of TLR4 caused by TLR9.
FIG. 14A-D. LPS causes the internalization of TLR9, which is reversed by CpG-DNA. Immunofluoresence studies of IEC-6 cells showing TLR9 distribution in cells which were either (A) untreated; or treated with (B) LPS; (C) LPS+CpG; or (D) CpG.
Further experiments were performed to study the mechanism by which TLR9 suppresses the TLR4 activation.

enterocytes [2] = experiment: LPS-mediated NF-κB (p65) translocation in enterocytes, with and without TLR9 siRNA knock-down; type: cell-based
Description: FIG. 7A-E. LPS-mediated translocation in enterocytes which are either (A) untreated or treated with (B) 50 μg/ml LPS; (C) 50 μg/ml LPS+10 μM CpG; or (D) 10 μM CpG. (E) Bar graph showing the nuclear:cytoplasmic ratio for NF-κB in (A)-(D).
FIG. 9A-F. CpG-DNA reduces TLR4 signaling through TLR9 in enterocytes. (A) Western blot showing the amounts of TLR9 protein relative to actin in untreated enterocytes (Ctrl) or in enterocytes treated with 0.084 μM non-specific siRNA or siRNA specific for TLR9. (B)-(E) are immunofluorescence studies showing the relative amounts of p65 in the enterocyte nucleus versus its cytoplasm, when either (B) untreated or treated with (C) 50 μg/ml LPS; (D) 50 μg/ml LPS+10 μM CpG (in the context of normal TLR9 levels) or (E) 50 μg/ml LPS+10 μM CpG (in the context of TLR9 knockdown by siRNA). (E) Bar graph showing the results of (B)-(E).
A second series of experiments was designed to study the consequences of the TLR4 activator LPS and the TLR9 activator CpG on the mediator of activated TLR4, NFκB. As shown by comparing FIGS. 7A and B, LPS causes NFκB to translocate into the nucleus. The extent of translocation caused by LPS is decreased by co-exposure to CpG (FIGS. 7C and E).
All the foregoing three series of experiments have shown that CpG (an activator of TLR9) inhibited the effects of TLR4 activation, including its role in promoting inflammation. […]

enterocytes [3] = experiment: LPS-mediated cytokine (IL-6) release from enterocytes; type: cell-based; details: 50 μg/ml LPS + 10 μM CpG
Description: FIG. 8. CpG-DNA reduces LPS-mediated cytokine release from enterocytes. Bar graph showing the level of supernatant IL-6 in enterocytes which were either untreated (“CTRL”) or treated with 50 μg/ml LPS, 50 m/ml LPS+10 μM CpG, or 10 μM CpG.

Substance: 5′-TCCATGACGTTCCTGACGTT-3′ [CpG-DNA]
- apoptosis in enterocytes of terminal ileum (caspase 3) [1]: substantially reduced
- LPS-caused internalization of TLR9 (IEC-6 cells; IEC-6 cells, LPS + CpG): reversed
- TLR4 distribution (IEC-6 cells; IEC-6 cells, immunofluorescence): causes a redistribution of TLR4 into internal enterocyte structures
- TLR4 and TLR9 expression (IEC-6 cells; enterocytes treated with CpG-DNA and LPS): unchanged
- attenuating effect of CpG on translocation of NFκB subunit p65 (enterocytes [2]; enterocytes with TLR9 expression suppressed by siRNA, 50 μg/ml LPS + 10 μM CpG): virtually eliminated
- extent of NFκB translocation into the nucleus caused by LPS (enterocytes [2]; enterocytes, 50 μg/ml LPS + 10 μM CpG vs LPS alone): decreased
- LPS-mediated cytokine release (supernatant IL-6) (enterocytes [3]): reduces
